Consider 1 molecule from patent US10525070B2, “Method of treating heart failure” (priority 2015, dated 2020).

Structures are written as SMILES. “And” between values parts separate entries of the source, which are not always exact repeats. Identical values can stand only once. “Also recorded” adds a separate entry of the source.

What all share (assay type): in vivo
The subject of one assay is WT mice. Briefly: NR rescue experiment, survival of WT mice with NR. To be noted: baseline Tfr1^hrt/hrt with PBS, for calculations lifespan was over 19.6 days for wild-type mice. An excerpt: (§1) Survival time was modeled as follows: Tij=μ+Bj+sij
(§2) Where Tij was the survival time (in days) for the i-th mouse in the j-th group. The model explained this in terms of a baseline mean m, an effect bj for the j-th group (relative to baseline) and inter-mouse variation eij. The model was fit using ordinary least squares (1-way ANOVA).
(§3) For the NR rescue experiment, the baseline was Tfr1^hrt/hrt with PBS. There was no significant improvement in mean survival when using just Tfr1^hrt/hrt (0.625 days, p-value=0.26, Table 3). There was, however, a significant improvement in the Tfr1^hrt/hrt with NR group (2.29 days, p-value<0.001). For statistical calculations, lifespan was over 19.6 days for wild-type mice.

Assay [1] relates to hearts from Tfr1^hrt/hrt mice. As to the kind of experiment: p62 protein levels in hearts of NR-treated mice. Particulars: NR treated vs untreated, FIGS. 20A and 20B. An excerpt:
Atg9A (Novus Biologicals).

Assay [2] concerns hearts from Tfr1^hrt/hrt mice. As to the kind of experiment: UPR^MT mRNA levels in hearts of NR-treated mice (real-time PCR). To be noted: P10 hearts, NR treated vs untreated, FIGS. 19A and 19B. The procedure:
Total heart RNA was isolated from flash-frozen tissue using the RNeasy Fibrous Tissue Mini Kit (Qiagen) and reverse transcribed as described in Schmidt et al. (2008) Cell Metab. […] For the microarray analysis, the Affymetrix GeneChip® Mouse Genome 430 2.0 Array was used. A minimum of 200 ng RNA was used for each sample. RNA samples were processed by the Duke Microarray Shared Resource Services. Transcript abundance was quantified by 2-step real-time PCR, using amplification conditions as described in Schmidt et al. (2008) Cell Metab. […] Primers are summarized in Table 2 and Rpl19 was used as an internal control.
(In general: Real-time PCR tracks product formation cycle by cycle.)

For assay [3], the system named is Tfr1^hrt/hrt mice. As to the kind of experiment: NR rescue experiment, survival of Tfr1^hrt/hrt mice.
Text: 129/SvEv mice bearing a floxed Tfrc allele were crossed with transgenic C57BL/6 mice expressing Cre recombinase under the control of the a-MyHC promoter. Backcrossing was with 129/SvEv mice for more than 10 generations and after the initial phenotypic characterization, all studies used mice with a homogeneous 129/SvEv background. Animals were genotyped by polymerase chain reaction (PCR) using genomic DNA from toe clips. Primers for Tfrc alleles, Cre, Hjv alleles, and Rosa26 are described in Table 1.
One-way ANOVA was performed for comparisons between two means, including when the comparison was between the means of WT and Tfr1^hrt/hrt. Survival analysis was performed using Logrank in Graphpad software. P<0.05 was considered statistically significant.
An independent statistical analysis for survival analysis was also performed as described below.
as §1, §2, §3

The subject of assay [4] is Tfr1^hrt/hrt mice. Briefly: NAD/NADH ratios in tissue with and without NR treatment. Particulars: measurements from tissue.

As to `NC(=O)c1ccc[n+]([C@@H]2O[C@H](CO)[C@@H](O)[C@H]2O)c1` [NR, nicotinamide riboside], the “Effect: survival relative to baseline” value with WT mice was 19.625 days. The “Accumulation of p62 in the hearts” value in assay [1] is “alleviated the accumulation”. For the same molecule, the “Expression of UPR^MT mRNAs (Atf4, Lonp1, Ddit3, Fgf21) in heart” value in assay [2] was “decreased expression; also recorded: blunted”. In the assay on Tfr1^hrt/hrt mice [3] (Tfr1^hrt/hrt mice, NR administration, FIG. 7E), the Extension of lifespan result is recorded as “up to 5 days”. In addition, the Prolongation of lifespans entry with Tfr1^hrt/hrt mice [3] (Tfr1^hrt/hrt mice, NR vs vehicle, FIG. 7E) is “up to 50%”. In the assay with Tfr1^hrt/hrt mice [3] (Tfr1^hrt/hrt with NR, 750 mg/kg IP daily from P5, baseline Tfr1^hrt/hrt with PBS (10.375), 1-way ANOVA model, p<0.001, 750 mg/kg), the “Effect: improvement in mean survival relative to baseline” value is 2.29 days and 2.292 days. For the same molecule, in the assay on Tfr1^hrt/hrt mice [3] (in the absence of iron therapy), the “Lifespan of treated mice (in words)” value is reported as “increased the lifespan”. For the same molecule, in the assay on Tfr1^hrt/hrt mice [4], the NAD/NADH ratios entry was “inconclusive”.
